According to patent publication US8389512B2 (priority 2008, dated 2013):
Each block holds one compound with its values, some of them ahead of it.

How the values were obtained:
[1] = Accelerated stability testing of cocrystals (PXRD, FTIR); settings: 2 months at 40° C.
[2] = 4 hr in-vivo study: meloxicam plasma concentration after oral delivery to rats; settings: rat
From the text: Male Sprague-Dawley rats, 250-300 g, received with a surgically implanted jugular catheter in place from (Harlan or Taconic Laboratories, USA). Animals were housed one per polycarbonate cage utilizing individual cage cards, with free access to food and water in accordance with NIH guidelines. Animals were quarantined at least 24 hrs after arrival prior to use and patency of the implanted catheter determined on the day of the test. Environmental controls for the animal room were set to maintain 18 to 26° C., a relative humidity of 30 to 70%, a minimum of 10 air changes/hour, and a 12-hour light/12-hour dark cycle. […] Each rat was weighed and the dose volume adjusted accordingly so that the effect of weight variability on results of study was eliminated and that each rat received 1 mg/kg dose.
Briefly, using a gradient elution with a Waters Symmetry C18 column (Waters Inc. USA), LCMS with selective reaction monitoring, protein precipitation of the plasma sample using acetonitrile where an LOQ of 50 ng/ml was achieved. Pharmacokinetic parameters were calculated from individual animal samples using appropriate software (PK Solutions 2.0, Summit Research Services, Montrose, Calif., USA).

[3] = 24 hr in-vivo study: meloxicam plasma concentration and pharmacokinetics after oral (gavage) administration to male rats; settings: for meloxicam plasma concentration / AUC (area under the plasma concentration-time curve at 24 h) / Cmax (peak plasma concentration) / F (bioavailability) / Time to Reach 0.59 μg/ml: male rats, 1 mg/kg oral; for AUC (area under the plasma concentration-time curve at 24 h) / Cmax (peak plasma concentration) / F (bioavailability): mean N = 5; for Time to Reach 0.59 μg/ml: calculated by interpolation of time vs. concentration data
From the text: Male Sprague-Dawley rats, 250-300 g, received with a surgically implanted jugular catheter in place from (Harlan or Taconic Laboratories, USA). Animals were housed one per polycarbonate cage utilizing individual cage cards, with free access to food and water in accordance with NIH guidelines. Animals were quarantined at least 24 hrs after arrival prior to use and patency of the implanted catheter determined on the day of the test. Environmental controls for the animal room were set to maintain 18 to 26° C., a relative humidity of 30 to 70%, a minimum of 10 air changes/hour, and a 12-hour light/12-hour dark cycle. Rats historically have been used in safety evaluation and PK screening studies and are recommended by appropriate regulatory agencies. […] Each rat was weighed and the dose volume adjusted accordingly so that the effect of weight variability on results of study was eliminated and that each rat received 1 mg/kg dose.
(§1) Pharmacokinetic parameters were calculated from individual animal samples using appropriate software (PK Solutions 2.0, Summit Research Services, Montrose, Calif., USA).

[4] = IV comparator group, meloxicam pharmacokinetics in rats; assay type: in vivo; settings: Sprague-Dawley, rat, plasma, 1 mg/kg, PEG400:DMSO formulation
Description: In addition, IV comparator group of 5 rats was used to calculate MAT (mean absorption time) and ka (absorption rate constant) parameters since such parameters cannot be determined for the oral groups.
200 micro liters of blood withdrawn from the indwelling intravenous catheter at 5 minutes, 15 minutes, 30 minutes, 45 minutes, 1, 2, 4, 8, 12 and 24 hours to provide sufficient amount of serum for analysis.
as §1

[5] = cited from earlier work
[6] = male, Sprague-Dawley, rat, plasma, po, 1 mg/kg

Stability in accelerated stability testing (PXRD profiles) ([1]; 75% RH open and closed vials, and 6 months at 40° C. open vial): stable for 6 months
Stability in accelerated stability testing (FTIR profiles) ([1]; 75% RH, vials open or closed): stable for 2 months
meloxicam plasma concentration ([2]; time 0 min): 0 µg/mL
meloxicam plasma concentration ([2]; time 15 min): 26.94 µg/mL
meloxicam plasma concentration ([2]; time 30 min): 42.67 µg/mL
meloxicam plasma concentration ([2]; time 45 min): 50.18 µg/mL
meloxicam plasma concentration ([2]; time 60 min): 52.67 µg/mL
meloxicam plasma concentration ([2]; time 120 min): 59.23 µg/mL
meloxicam plasma concentration ([2]; time 240 min): 60.85 µg/mL
meloxicam plasma concentration ([3]; N = 5, 0.0833 hour): 0.13 µg/mL
meloxicam plasma concentration ([3]; N = 5, 0.25 hour): 0.87 µg/mL
meloxicam plasma concentration ([3]; N = 5, 0.5 hour): 1.14 µg/mL
meloxicam plasma concentration ([3]; N = 5, 0.75 hour): 1.37 µg/mL
meloxicam plasma concentration ([3]; N = 5, 1 hour): 1.74 µg/mL
meloxicam plasma concentration ([3]; N = 5, 2 hour): 2.49 µg/mL
meloxicam plasma concentration ([3]; N = 5, 4 hour): 2.51 µg/mL
meloxicam plasma concentration ([3]; N = 5, 8 hour): 2.34 µg/mL
meloxicam plasma concentration ([3]; N = 5, 12 hour): 1.83 µg/mL
meloxicam plasma concentration ([3]; N = 5, 24 hour): 1.16 µg/mL
AUC (area under the plasma concentration-time curve at 24 h) [3]: 44100 ng·h/mL
Cmax (peak plasma concentration) [3]: 2700 ng/mL
F (bioavailability) [3]: 69.4%
Time to Reach 0.59 μg/ml [3]: 10.6 min
Compound: Meloxicam:Aspirin Cocrystal (1:1) [Cocrystal 73]

Compound: Cc1cnc(NC(=O)C2=C(O)c3ccccc3S(=O)(=O)N2C)s1.O=C(O)c1ccccc1O [Cocrystal 88, Meloxicam:Salicylic Acid Cocrystal Form III (1:1)]
meloxicam plasma concentration ([2]; time 15 min): 42.10 µg/mL
meloxicam plasma concentration ([2]; time 30 min): 38.19 µg/mL
meloxicam plasma concentration ([2]; time 45 min): 40.48 µg/mL
meloxicam plasma concentration ([2]; time 60 min): 41.18 µg/mL
meloxicam plasma concentration ([2]; time 120 min): 40.50 µg/mL
meloxicam plasma concentration ([2]; time 240 min): 49.13 µg/mL
meloxicam plasma concentration ([3]; N = 5, 0.25 hour): 0.7675 µg/mL
meloxicam plasma concentration ([3]; N = 5, 0.5 hour): 0.8975 µg/mL
AUC (area under the plasma concentration-time curve at 24 h) [3]: 29600 ng·h/mL
Cmax (peak plasma concentration) [3]: 2230 ng/mL
F (bioavailability) [3]: 46.5%
Time to Reach 0.59 μg/ml [3]: 11.3 min

Compound: Cc1cnc(NC(=O)C2=C(O)c3ccccc3S(=O)(=O)N2C)s1 [Meloxicam, (8E)-8-[hydroxy-[(5-methyl-1,3-thiazol-2-yl)amino]methylidene]-9-methyl-10,10-dioxo-10λ^6-thia-9-azabicyclo[4.4.0]deca-1,3,5-trien-7-one, reference compound]
concentration at 0 min ([2]; male, Sprague-Dawley, plasma, 1 mg/kg, time 0 min): 0 ng/mL
concentration at 15 min ([2]; male, Sprague-Dawley, plasma, 1 mg/kg, time 15 min): 8190 ng/mL
concentration at 30 min ([2]; male, Sprague-Dawley, plasma, 1 mg/kg, time 30 min): 14800 ng/mL
concentration at 45 min ([2]; male, Sprague-Dawley, plasma, 1 mg/kg, time 45 min): 19600 ng/mL
concentration at 60 min ([2]; male, Sprague-Dawley, plasma, 1 mg/kg, time 60 min): 24000 ng/mL
concentration at 120 min ([2]; male, Sprague-Dawley, plasma, 1 mg/kg, time 120 min): 30200 ng/mL
concentration at 240 min ([2]; male, Sprague-Dawley, plasma, 1 mg/kg, time 240 min): 39400 ng/mL
AUC ([4]; read-out: AUC (area under the plasma concentration-time curve at 24 h)): 63600 ng·h/mL
MRT ([4]; read-out: MRT (mean residence time)): 14.7 h
solubility in methanol ([5]; methanol): very slightly soluble
solubility in strong acids and bases ([5]; strong acids and bases, compared with water): higher solubility
solubility in water ([5]; water): practically insoluble
Time to Reach 0.59 μg/ml [3]: 270.0 min
AUC [3, 6]: 10000 ng·h/mL
Cmax [3, 6]: 590 ng/mL
MRT [3, 6]: 21.8 h
bioavailability [3, 6]: 15.7%
concentration at 0.0833 hour [3, 6]: 20 ng/mL
concentration at 0.25 hour [3, 6]: 190 ng/mL
concentration at 0.5 hour [3, 6]: 280 ng/mL
concentration at 0.75 hour [3, 6]: 320 ng/mL
concentration at 1 hour [3, 6]: 390 ng/mL
concentration at 2 hour [3, 6]: 510 ng/mL
concentration at 4 hour [3, 6]: 540 ng/mL
concentration at 8 hour [3, 6]: 530 ng/mL
concentration at 12 hour [3, 6]: 460 ng/mL
concentration at 24 hour [3, 6]: 240 ng/mL
